Measured values as given in US20190008797A1, “ESTROGEN RECEPTOR ALPHA COLIGANDS, AND METHODS OF USE THEREOF” (priority 2016, published 2019).

Columns and labels:
ERα = ERα (Homo sapiens, UniProt P03372); experiment: NKG2E-TK-Luc transfection assay, U2OS cells cotransfected with ERα; format: cell-based; parameters: expressed in transfected cells; host or cells: U2OS; settings: 5 μM 2′,3′,4′-THC + 10 or 100 nM estrogen, 24 hours
Protocol: FIG. 7a-7e. […] (C) U2OS cells cotransfected with GRE-TK-Luc and human (h) GR and treated with 10 nM of dexamethasone (Dex) and 5 μM of 2′, 3′, 4′-THC alone or in combination for 24 hours. (D) U2OS cells cotransfected with human tyrosine aminotransferase (TATS)-luciferase reporter gene and hAR and treated with 10 nM of dihydrotestosterone (DHT) and 5 μM of 2′, 3′, 4′-THC alone or in combination for 24 hours. (E) U2OS cells cotransfected with TAT3-luciferase reporter gene and hPR-B and treated with 10 nM of progesterone (Prog) and 5 μM of 2′, 3′, 4′-THC alone or in combination for 24 hours. After transfection, luciferase activities were measured as described in the Methods. RLU is relative light units and the data shown are mean±SEM.
(§1) (FIGS. 6a, 6b) Gene expression of (FIG. 6a) KRT73 and (FIG. 6b) NKG2E in U2OS-ERα cells treated with 10 nM estradiol, 5 μM 2′, 3′, 4′-THC, 1μM ICI alone or in combination for 24 hours. […] Error bars are ±SEM. […] After transfection, luciferase activities were measured as described in the Methods. RLU is relative light units and the data shown are mean ±SEM. (FIG. 6c). […] After transfection, luciferase activities were measured as described in the Methods. RLU is relative light units and the data shown are mean ±SEM (FIG. 6d).

U2OS-ERα cells [1] = experiment: KRT19 mRNA real-time PCR in U2OS-ERα cells; format: cell-based, human; settings: for KRT19 gene expression, compound alone: 10 nM E2, 5 μM 2′,3′,4′-THC, 1 μM tamoxifen or raloxifene, 24 hours; for effect on E2-induced KRT19 expression: in combination with 10 nM E2, 24 hours
Protocol: (§2) (FIG. 1a) Chemical structure of 2′, 3′, 4′-THC. (FIG. 1b) U2OS cells cotransfected with ERE tk-luciferase and ERα (left panel) or ERβ (right panel). After transfection the cells were treated for 24 hours with 10 nM estradiol and 5 μM 2′, 3′, 4′-THC alone or in combination. Cells were lysed and luciferase activity was measured. RLU is relative light units. Error bars are the Mean±SEM. **P≤0.01. […] The total cellular RNA was extracted and real-time PCR for KRT19 mRNA was performed as described in Materials and Methods. […] Error bars are ±SEM. *P≤0.05, **** P≤0.0001.
FIGS. 3a-3d. […] Error bars are ±SEM.

U2OS-ERα cells [2] = experiment: NKG2E mRNA real-time PCR in U2OS-ERα cells; format: cell-based, human; settings: for NKG2E gene expression, compound alone: 10 nM E2, 5 μM 2′,3′,4′-THC, 1 μM tamoxifen or raloxifene
Protocol: as §2, §1

U2OS-ERα cells [3] = experiment: Microarray gene regulation in U2OS-ERα cells; format: cell-based, human
Protocol: Total cellular RNA was isolated utilizing the Aurum™ RNA isolation kit (Bio-Rad, Hercules, Calif.) per the manufacturer's directions. RNA isolates were first quantified by nanodrop®, and then qualitatively evaluated by the Bio-Rad Experion™ system per the manufacturer's instructions. Biotin-labeled cRNA samples were prepared using 750 ng of total RNA. Biotin-labeled samples were evaluated by both 260/280 absorbance spectrophotometry and capillary electrophoresis. Labeled cRNA samples were hybridized overnight against Human genome HG U133A-2.0 GeneChip® arrays, (Affymetrix, Santa Clara, Calif.). All treatments were done in triplicate with the same batch of microarrays. The data was analyzed as previously described (Saunier, E. F., et al. Estrogenic plant extracts reverse weight gain and fat accumulation without causing mammary gland or uterine proliferation. PloS one 6, e28333 (2011)).
FIGS. 2a-2f2′, 3′, 4′-THC behaves as a unique coagonist on gene expression in U2OS-ERα cells. […] Expression was assessed by up regulation or down regulation of 3-fold or more and a P-value≤0.05. […] Error bars are ±SEM.

U2OS-ERα cells [4] = experiment: Real-time PCR of unique genes FGR, KCNK6, KRT73 in U2OS-ERα cells; format: cell-based, human
Protocol: Expression was assessed by up regulation or down regulation of 3-fold or more and a P-value≤0.05. […] Error bars are ±SEM.
as §1

mouse uterus = experiment: Ovariectomized (OVX) mouse model, osmotic pump; format: in vivo; settings: OVX mice, 4 weeks
Protocol: 8 week old C57b1/6J female ovariectomized or intact mice were purchased from Jackson Laboratories, Sacramento, Calif. Mice were housed and maintained according to OLAC standard procedures in the NAF facility at UC Berkeley, Calif. All mice were fed a soy-free chow diet 2916.15 (Harlan Laboratories, Livermore, Calif.) starting one week before osmotic pump implantation or 2′, 3′, 4′-THC injection. Pumps Model 2006 were purchased from Alzet and filled with vehicle, 1 μg […], 2 mg of 2′, 3′, 4′-THC or the combination of 2′, 3′, 4′-THC and estradiol. All drugs were dissolved in sterile vehicle consisting of 50% dimethylsulfoxide (DMSO), 25% ETOH and 25% deionized water. Pumps were handled with sterile gloves and filled using a 27 gauge filling tube and 1 mL syringe. All pumps were placed in 1X PBS in 15 mL sterile conical tubes and incubated overnight at 37° . Pumps were surgically implanted into 8 week old C57b1/6J female ovariectomized mice (Jackson Laboratory, Sacramento, Calif.) posterior to the scapula and left for a duration of 4 weeks. Intact mice were injected intraperitoneal with 2′, 3′, 4′-THC every day for 3 weeks. Mice were weighed once a week for the duration of the experiment. The intraperitoneal gonadal fat was removed and weighed. Uterine tissue was collected, fluid drained and then weighed.
Tissues were dissected and immediately frozen in liquid nitrogen. Before RNA isolation, tissues were homogenized in PureZOL™ using the MP FastPrep™-24 for 40 seconds.
Uterine Tissue Slide Preparation Uterine tissue was removed and trimmed of excess adipose tissue. Tissues were fixed in formalin for 24 hours then transferred to 50% ETOH for 1 hour followed by 70% ethanol (ETOH) for another hour. After fixation tissues were sent to Histopathology Reference Laboratory, Hercules Calif. where they were paraffin embedded, sectioned and stained with hematoxylin and eosin for morphological exam
FIGS. 5a-5h. 2′, 3′, 4′-THC acts as antagonist in the mouse uterus. Uterine weights of intact (FIG. 5a) and OVX (FIG. 5b) mice. […] (FIG. 5h) Total body weight of OVX mice after 4 week treatment. Error bars are ±SEM.

MCF-7 cells = experiment: MCF-7 cell proliferation (cell counting); settings: 5 days
[5] = 1 μM ICI, 10 nM estradiol, 5 μM 2′,3′,4′-THC, 24 hours

ERα, sequence (P03372 whole entry): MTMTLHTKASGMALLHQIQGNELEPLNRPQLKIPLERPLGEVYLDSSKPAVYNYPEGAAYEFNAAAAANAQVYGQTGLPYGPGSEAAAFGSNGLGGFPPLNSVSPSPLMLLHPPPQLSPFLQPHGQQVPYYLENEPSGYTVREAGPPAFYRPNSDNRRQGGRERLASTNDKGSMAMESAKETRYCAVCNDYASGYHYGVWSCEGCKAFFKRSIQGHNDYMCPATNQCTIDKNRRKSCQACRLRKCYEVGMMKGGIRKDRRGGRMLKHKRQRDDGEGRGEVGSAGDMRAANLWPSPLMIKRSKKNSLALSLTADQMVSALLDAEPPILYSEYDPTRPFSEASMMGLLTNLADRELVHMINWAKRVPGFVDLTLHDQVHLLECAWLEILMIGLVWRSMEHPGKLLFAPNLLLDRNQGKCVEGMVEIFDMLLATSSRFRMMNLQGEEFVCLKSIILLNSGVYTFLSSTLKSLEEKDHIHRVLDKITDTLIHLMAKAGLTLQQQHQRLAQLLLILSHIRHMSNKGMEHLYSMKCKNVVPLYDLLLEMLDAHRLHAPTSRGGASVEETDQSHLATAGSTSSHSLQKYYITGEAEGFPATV

SMILES: C[C@]12CC[C@@H]3c4cc(O)c(O)cc4CC[C@H]3[C@@H]1CC[C@@H]2O [2-hydroxyestradiol, reference compound]
- synergistic action of 2′,3′,4′-THC on NKG2E-TK-Luc with the named estrogen (ERα): synergistic action

SMILES: COc1cc2c(cc1O)CC[C@@H]1[C@@H]2CC[C@]2(C)[C@@H](O)CC[C@@H]12 [2-methoxyestradiol, reference compound]
- synergistic action of 2′,3′,4′-THC on NKG2E-TK-Luc with the named estrogen (ERα): smaller synergistic activation

SMILES: C[C@]12CC[C@@H]3c4ccc(O)c(O)c4CC[C@H]3[C@@H]1CC[C@@H]2O [4-hydroxyestradiol, reference compound]
- synergistic action of 2′,3′,4′-THC on NKG2E-TK-Luc with the named estrogen (ERα): synergistic action

SMILES: C[C@]12CC[C@@H]3c4ccc(O)cc4CC[C@H]3[C@@H]1CC[C@@H]2O [E2, 17β-estradiol, reference compound]
- KRT19 gene expression, compound alone (U2OS-ERα cells [1]): induced
- NKG2E gene expression, compound alone (U2OS-ERα cells [2]; 24 hours): activated
- genes uniquely regulated by E2 alone (U2OS-ERα cells [3]; 10 nM E2): 222 genes
- number of genes regulated, compound alone (U2OS-ERα cells [3]; 10 nM E2 or 5 μM 2′,3′,4′-THC, 3-fold or more, P≤0.05): 756 genes
- E2 dose at which FGR activation was observed (U2OS-ERα cells [4]; E2 alone, 24 hrs): 10 nM
- KCNK6 regulation (U2OS-ERα cells [4]; E2 alone, 24 hrs): not regulated
- KRT73 regulation (U2OS-ERα cells [4]; E2 alone, 24 hrs): not regulated
- H & E staining of uterus, compound alone (mouse uterus): increased the number of cells lining the duct
- amount of gonadal adipose tissue fat (mouse uterus; E2 alone): decreased
- uterine size / uterine weight, compound alone (mouse uterus; osmotic pump): large increase
- MCF-7 cell proliferation, compound alone (MCF-7 cells): increased

SMILES: C[C@]12CC[C@@H]3c4ccc(O)cc4C[C@@H](CCCCCCCCC[S+]([O-])CCCC(F)(F)C(F)(F)F)[C@H]3[C@@H]1CC[C@@H]2O (some centres unmarked) [ICI 182,780]
- effect on induction of NKG2E by the 2′,3′,4′-THC/E2 combination (U2OS-ERα cells [2]; [5]): blocked
- effect on induction of KRT73 by the 2′,3′,4′-THC/E2 combination (U2OS-ERα cells [4]; [5]): blocked

SMILES: O=C(c1ccc(OCCN2CCCCC2)cc1)c1c(-c2ccc(O)cc2)sc2cc(O)ccc12 [raloxifene]
- KRT19 gene expression, compound alone (U2OS-ERα cells [1]): no effect
- effect on E2-induced KRT19 expression (U2OS-ERα cells [1]): blocked
- NKG2E gene expression, compound alone (U2OS-ERα cells [2]; 24 hours): activated
- effect on E2-induced NKG2E gene expression (U2OS-ERα cells [2]; in combination with 10 nM E2, 24 hours): antagonized

SMILES: CC/C(=C(\c1ccccc1)c1ccc(OCCN(C)C)cc1)c1ccccc1 [tamoxifen]
- KRT19 gene expression, compound alone (U2OS-ERα cells [1]): no effect
- effect on E2-induced KRT19 expression (U2OS-ERα cells [1]): blocked
- NKG2E gene expression, compound alone (U2OS-ERα cells [2]; 24 hours): activated
